Laboratory results taken from patent US20260085039A1 (priority 2022, published 2026).
≈ marks a conversion by molar mass, not a printed value. Entries after “also recorded” stand apart in the source; their conditions may differ. Like-named read-outs stand apart in the source and are kept apart here.

Key:
[1] = acid for salt screen; cited from earlier work
[2] = Drying studies, form by XRPD after vacuum drying; format: physicochemical; conditions: RT, 1 d
Procedure: XRPD patterns were collected with a PANalytical X'Pert PRO MPD or Empyrean diffractometer using an incident beam of Cu radiation produced using an Optix long, fine-focus source. An elliptically graded multilayer mirror was used to focus Cu Kα X-ray radiation through the specimen and onto the detector. Prior to the analysis, a silicon specimen (NIST SRM 640f) was analyzed to verify the observed position of the Si (111) peak is consistent with the NIST-certified position. A specimen of the sample was sandwiched between 3-μm-thick films and analyzed in transmission geometry. A beam-stop, short antiscatter extension, and antiscatter knife edge were used to minimize the background generated by air. Soller slits for the incident and diffracted beams were used to minimize broadening from axial divergence. Diffraction patterns were collected using a scanning position-sensitive detector (X'Celerator) located 240 mm from the specimen and Data Collector software v. 5.5.

[3] = Solubility (appearance) and pH in saline; format: physicochemical
[4] = Observation of solubility samples after 1 day ambient storage (discoloration); format: physicochemical
Source text: The solubility estimates were utilized to design experiments for the salt screen.

[5] = Approximate solubility by solvent aliquot addition, visual inspection, ambient temperature; format: physicochemical
Procedure: Weighed samples were treated with aliquots of designated solvent at ambient temperature. Complete dissolution of the test material was determined by visual inspection. Solubility was estimated based on the total solvent volume used to provide the complete dissolution. If complete dissolution was achieved by only one aliquot addition, the value is reported as “larger than”; if complete dissolution was not achieved, the value is reported as “less than”. The actual solubility may be greater than the value calculated because of the use of solvent aliquots that were too large or due to a slow rate of dissolution.

[6] = Stability in saline by HPLC psilocin peak area over time; conditions: aqueous solution such as saline, 36 hours

In the case of `O=C(O)C=C(CC(=O)O)C(=O)O` [Aconitic acid], the pKa1 [1] is listed as 2.80.

In the case of `O=S(=O)(O)c1ccccc1` [Benzesulfonic acid], the pKa1 [1] is listed as 0.17.

In the case of `CN(C)CCc1c[nH]c2cccc(O)c12.O=C(O)c1ccccc1` [Benzoate Form A], the “XRPD Result after drying” value [2] is reported as “maintains the same form; also recorded: Benzoate Form A”.

In the case of `O=C1O[C@H]([C@H](O)CO)C(O)=C1O` [Erythorbic acid], the pKa1 [1] is given as 2.1.

For `CCCC(=O)O.CN(C)CCc1c[nH]c2cccc(O)c12` [Psilocin butyrate], the Appearance in solution ([3]; 1.0 mg/mL in saline) was “Visually soluble, clear solution” and the pH ([3]; 1.0 mg/mL in saline) was 6.281.

In the case of `O=C1CC[C@@H](C(=O)O)N1` [Pyrogluatmic acid], the pKa1 [1] is listed as 3.32.

For `C/C=C/C=C/C(=O)O` [Sorbic acid], the pKa1 [1] is given as 4.75.

With `CN(C)CCc1c[nH]c2cccc(O)c12` [psilocin, 4-hydroxy-N,N-dimethyltryptamine] the Appearance in solution ([3]; 0.1 mg/mL in saline) was “Visually soluble, clear solution”, the pH ([3]; 0.1 mg/mL in saline) was 9.053 and the Appearance in solution ([3]; 1.0 mg/mL in saline) was “Cloudy solution, not soluble”. The pH ([3]; 1.0 mg/mL in saline) was 9.395, the “Observation after 1 day ambient storage” value ([4]; ACN) was “No discoloration” and the “Observation after 1 day ambient storage” value ([4]; Acetone) was “No discoloration”. The “Observation after 1 day ambient storage” value ([4]; Dioxane) was “No discoloration”, the “Observation after 1 day ambient storage” value ([4]; EtOAc) was “No discoloration” and the “Observation after 1 day ambient storage” value ([4]; EtOH) was “No discoloration”. For the same molecule, the “Observation after 1 day ambient storage” value ([4]; H20) was “Discoloration (black suspension)”, the “Observation after 1 day ambient storage” value ([4]; H20, listed as Psilocin free base) was “strong discoloration (black)” and the “Observation after 1 day ambient storage” value ([4]; MeOH) was “No discoloration”. The “Observation after 1 day ambient storage” value ([4]; THF) was “No discoloration”, the solubility ([5]; ACN, ambient temperature, estimated) was 9 mg/mL (≈ 44.1 mM) and the solubility ([5]; EtOAc, ambient temperature, estimated) was 8 mg/mL (≈ 39.2 mM). The solubility ([5]; ethanol, organic solvent or mixture, thermodynamic from solid, EtOH, ambient temperature, estimated, read-out: Solubility) was under 1 mg/mL, the solubility ([5]; methanol, organic solvent or mixture, thermodynamic from solid, MeOH, ambient temperature, estimated, read-out: Solubility) was under 1 mg/mL and the solubility ([5]; organic solvent or mixture, thermodynamic from solid, Acetone, ambient temperature, estimated, read-out: Solubility) was 20 mg/mL (≈ 97.9 mM). The solubility ([5]; organic solvent or mixture, thermodynamic from solid, Dioxane, ambient temperature, estimated, read-out: Solubility) was 18 mg/mL (≈ 88.1 mM), the solubility ([5]; other organic solvents (not water, not alcohols), organic solvent or mixture, thermodynamic from solid, read-out: Solubility) was at least 8 mg/mL and the solubility ([5]; tetrahydrofuran, organic solvent or mixture, thermodynamic from solid, THF, ambient temperature, estimated, read-out: Solubility) was 18 mg/mL (≈ 88.1 mM). The solubility ([5]; water and alcohols) was “poorly soluble”, the solubility ([5]; water, thermodynamic from solid, H20, ambient temperature, estimated, read-out: Solubility) was under 1 mg/mL and the “decrease in the amount of psilocin present over time” value [6] was at least 15%.
